The text below walks through data of patent US20200224168A1, “COMPOSITIONS AND METHODS FOR ENHANCING MATURATION STATES OF HEALTHY AND DISEASED CARDIOMYOCYTES” (University of Washington, priority 2017, published 2020).

For data set [1], the system named is cells exposed to Control conditions or Normal hPSC-CMs exposed to the ComboMat platform. The data set can be described thus: nanoMEA beat rate variability, immature or healthy cells. Format: cell-based, human. Particulars: seven days.
Method: Cells were exposed to various concentrations of nitrendipine or sildenafil citrate for seven days and measured their beat rate variability. […] Briefly, the ion permeable polymer Nafion (Sigma-Aldrich) was patterned onto commercial multi-well MEA plates (Axion Biosystems) via solvent-mediated capillary force lithography. Prior to cell seeding, control flat or nanoMEA Nafion surfaces were sterilized with UV-C light and then incubated for 6 hours at 37° C. with 5 μg/cm^2 human fibronectin (Life Technologies). hPSC-CMs were plated in droplet fashion at 25,000 cells per well of the MEA plate. Electrophysiological analysis of spontaneously beating cardiomyocytes was collected for 2 minutes using the AxIS software (Axion Biosystems). After raw data collection, the signal was filtered using a Butterworth band-pass filter and a 90 μV spike detection threshold. Field potential duration was automatically determined using a polynomial fit T-wave detected algorithm. Beat interval analysis on 30 consecutive beats was performed as previously published^26 (see Table 3).
The test system of data set [2] is mdx mouse. Particulars: cited from earlier work.
Data set [3] has as its system mature DMD mutant hPSC-CMs. The data set can be described thus: nanoMEA beat rate variability (Mean ΔBI), mature diseased cells. Type of data set: cell-based, human.
Method: Cells were exposed to various concentrations of nitrendipine or sildenafil citrate for seven days and measured their beat rate variability. […] Briefly, the ion permeable polymer Nafion (Sigma-Aldrich) was patterned onto commercial multi-well MEA plates (Axion Biosystems) via solvent-mediated capillary force lithography. Prior to cell seeding, control flat or nanoMEA Nafion surfaces were sterilized with UV-C light and then incubated for 6 hours at 37° C. with 5 μg/cm^2 human fibronectin (Life Technologies). hPSC-CMs were plated in droplet fashion at 25,000 cells per well of the MEA plate. Electrophysiological analysis of spontaneously beating cardiomyocytes was collected for 2 minutes using the AxIS software (Axion Biosystems). After raw data collection, the signal was filtered using a Butterworth band-pass filter and a 90 μV spike detection threshold. Field potential duration was automatically determined using a polynomial fit T-wave detected algorithm.
Data set [4] concerns DMD patients. The following applies: cited from earlier work.
Data set [5] relates to hPSC-CMs. Put plainly: Immunofluorescent imaging, morphological and sarcomere analysis. The following applies: for cell area compared to Control: single maturation cue on flat surface, 3 weeks. Type of data set: cell-based, human. From the text: For these studies, and all subsequent functional assays, the full ComboMat platform (Let7i+NP+T3) was compared to a viral vector Control (EV+Flat+No T3) and each maturation cue in isolation: NP (EV+NP+No T3), T3 (EV+Flat+T3), and Let7i (Let7i+Flat+No T3). […] Sarcomeres developed with a higher degree of directionality and order on NPs, resulting in more sarcomeres in register with one another (FIG. 2B).
[…] Samples were then permeabilized with 0.1% Triton X-100 (Sigma-Aldrich) in PBS and blocked with 5% goat serum. Cells were then incubated with mouse anti-α-actinin monoclonal antibody (1:1000, Sigma-Aldrich) in 1% goat serum overnight at 4° C. After washing with PBS, the samples were stained with Alexa-594 conjugated goat-anti-mouse secondary antibody (1:200, Invitrogen) as well as Alexafluo 488 labeled Phalloidin (1:200, Invitrogen). Nuclei counterstaining was performed with Vectashield containing DAPI (Vector Labs). A Nikon AIR confocal microscope with a Nikon CFI Plan Apo VC 60× water immersion objective was used to capture detailed immunofluorescent images for sarcomere analysis while a 20× air objective was used to obtain low-powered images of cells for measuring cell binucleation percentage. Cells from both objective powers were used to measure cell size. For morphological and sarcomere analysis, hPSC-CMs were plated at 10,000 cells/cm^2. […]
Immunofluorescent images were quantified for sarcomere alignment, pattern strength, and sarcomere length using a scanning gradient/Fourier transform script in MATLAB (Mathworks). Each image was broken into several small segments which were individually analyzed. Using a directional derivative, the image gradient for each segment was calculated to determine the local alignment of sarcomeres. The pattern strength was then determined by calculating the maximum peaks of one-dimensional Fourier transforms in the direction of the gradient. The lengths of sarcomeres were calculated by measuring the intensity profiles of the sarcomeres along this same gradient direction. […]

Data set [6] concerns DMD mutant hPSC-CMs. The data set can be described thus: Primary drug screen: intracellular ATP (CellTiter Glo) viability after hypotonic stress. Particulars: 18 hours compound incubation, then 12.5% normal osmolarity for 30 minutes, relative to DMSO control wells, concentration not stated (10^-8 to 10^-5 M tested). On the technique in general: ATP-based viability assays read luminescence as a measure of living cells.

For the compound `CCCc1nn(C)c2c(=O)[nH]c(-c3cc(S(=O)(=O)N4CCN(C)CC4)ccc3OCC)nc12` [sildenafil], the “impact on beat rate variability” value in data set [1] was “Neither nitrendipine nor sildenafil had a significant impact”. In data set [2], the “cardiac dysfunction in the mdx mouse” value is “showed promise in alleviating cardiac dysfunction”. Further, the “Mean ΔBI (beat rate variability) compared to DMSO carrier control” value in data set [3] (mature (ComboMat) DMD mutant hPSC-CMs, seven days exposure, various concentrations) was “no effect”. In addition, in data set [4], the “cardiac symptoms in DMD patients (clinical trial, terminated early)” value is listed as “exacerbated cardiac symptoms”.

Turning to “Let7i: Let-7i miRNA (UGAGGUAGUAGUUUGUGCU duplex) overexpressed from a lentiviral vector (listed as Homo sapiens)”, the “cell area compared to Control” value in data set [5] is “significantly larger”.

As to `N[C@@H](Cc1cc(I)c(Oc2ccc(O)c(I)c2)c(I)c1)C(=O)O` [T3, Triiodothyronine], the “impact of long-term exposure on sarcomere development and beat rate variability” value in data set [5] (long-term T3 exposure (7, 14, 21 days), preliminary results) is “negative impact”. The “cell area compared to Control” value in data set [5] is given as “significantly larger”.

On to `CCOC(=O)C1=C(C)NC(C)=C(C(=O)OC)C1c1cccc([N+](=O)[O-])c1` (centres unmarked) [NITRENDIPINE], for which the “effect on spontaneous beating” value in data set [3] (doses higher than 1 μM, seven days) is on record as “ceased spontaneous beating”. Also, in data set [3] (mature DMD mutant hPSC-CMs, Mean ΔBI after washout), the “time for benefits to wash out after removal from cell culture medium” value was no more than 48 h. For the same compound, in data set [3] (mature DMD mutant hPSC-CMs, doses up to 1 μM, seven days), the “beat rate variability level restored” value is given as less than 50 ms.

In the case of `CN1CCc2c(c3ccccc3n2Cc2ccccc2)C1.CN1CCc2c(c3ccccc3n2Cc2ccccc2)C1.O=S(=O)(O)c1cccc2c(S(=O)(=O)O)cccc12` [MEBHYDROLIN NAPHTHALENESULFONATE], in data set [6], the “Average of % Viability” value came to 172.81 ± 39.86%.
